Measured values published in US12090184B2, “Traditional Chinese medicine composition for treating dermatophytosis and bromhidrosis and application thereof” (JINGCHU UNIVERSITY OF TECHNOLOGY, priority 2019, dated 2024).

Assays:
Assay type in all cases: cell-based
[1] = test system: Aspergillus fumigatus ATCC-MYA-3626; test: in vitro anti-fungal test, 80% MIC (CLSI M-38P)
Source text: (§1) 1. The present disclosure conducts an in vitro anti-fungal test on the composition extracts in Examples 1 to 3, and the single radix sophorae flavescentis alkaloid and single peristrophe japonica extracts prepared in Example 3. The cell strains used in the test are all ATCC standard strains provided by the Fungi Center of the Medical Microbial (Virus) Species Collection and Management Center of the Ministry of Health, which includes as follows, Aspergillus: Aspergillus fumigatus Strain Number: CMCCC(F) A1g (ATCC-MYA-3626); Candida: Candida albicans Strain Number: CMCCC (F) C.1L (ATCC90028); Trichophyton: Trichophyton rubrum Strain Number: CMCCC(F)T.1h (ATCC-MYA-4438); Trichophyton mentagrophytes Strain Number: CMCCC(F)T.5e (ATCC-MYA-4439).
(§2) 2. The specific experimental methods are carried out with reference to the standard methods of yeast M-27A3 and filamentous fungi M-38P issued by the Clinical and Laboratory Standards Institute (US, CLSI) of the United States.
(§3) Before the experiment, after activating the experimental bacteria, yeast are cultured on Sabouraud Dextrose Agar(SDA) medium at 30° C. for 48 hours; filamentous fungi are cultured on potato dextrose agar (PDA) medium at 26° C. for 7 days to 10 days. A suspension is prepared with sterile normal saline, the suspension is counted by a hemocytometer, and is dilute with RMPI-1640 liquid medium containing 2% glucose in multiple amounts to Candida albicans 1.0×10^3 cfu/mL; the other three filamentous fungi are prepared into 2.5×10^4 cfu/mL. 0.1 mL of bacterial solutions are taken respectively, the culture medium containing the compositions prepared in Examples 1 to 3 and the same doses of the radix sophorae flavescentis alkaloids and the peristrophe japonica extracts prepared in Example 3 are added into each well, wherein the well 11 is a vehicle control, the well 12 is a medium control. 0.1 mL of the diluted solvent is added into the vehicle control well, and 0.1 mL of the distilled water is added into the control well. […]

[2] = test system: Trichophyton mentagrophytes ATCC-MYA-4439; test: in vitro anti-fungal test, 80% MIC (CLSI M-38P)
Source text: as §1, §2, §3

[3] = test system: Trichophyton rubrum ATCC-MYA-4438; test: in vitro anti-fungal test, 80% MIC (CLSI M-38P)
Source text: as §1, §2, §3

[4] = test system: Candida albicans ATCC90028; test: in vitro anti-fungal test, 80% MIC (CLSI M-27A3)
Source text: as §1
2. […]
Before the experiment, after activating the experimental bacteria, yeast are cultured on Sabouraud Dextrose Agar(SDA) medium at 30° C. for 48 hours; filamentous fungi are cultured on potato dextrose agar (PDA) medium at 26° C. for 7 days to 10 days. A suspension is prepared with sterile normal saline, the suspension is counted by a hemocytometer, and is dilute with RMPI-1640 liquid medium containing 2% glucose in multiple amounts to Candida albicans 1.0×10^3 cfu/mL; the other three filamentous fungi are prepared into 2.5×10^4 cfu/mL. […]

80% MIC [1]: 4.2
80% MIC [2]: 5.8
80% MIC [3]: 5.6
80% MIC [4]: 3.8
Compound: CCC(C)n1ncn(-c2ccc(N3CCN(c4ccc(OCC5COC(Cn6cncn6)(c6ccc(Cl)cc6Cl)O5)cc4)CC3)cc2)c1=O (stereo not shown) [Itraconazole]
